Test results taken from patent US20100093795A1, “Piperidine Derivative Used for Treating Chemokine Receptor 5 Mediated Diseases” (priority 2006, published 2010).

Assay: Rat pharmacokinetics after intravenous and oral dosing (Example 3)
Format: in vivo
Details: Alderley Park Han Wistar; male rat (Han Wistar), oral 2 mg/kg vs intravenous 2 mg/kg, whole blood; read-out: F (bioavailability)
Method: The rat pharmacokinetic (PK) parameters blood clearance (CL), volume of distribution (Vdss) and half life (t½) are calculated by determining the concentration (exposure) of test compound in whole blood samples taken from rats at various, defined time points subsequent to the intra-venous dosing (administration) of formulated test compound. The rat PK parameter bioavailability (F) is calculated by determining the concentration (exposure) of test compound in whole blood samples taken from rats at various, defined time-points subsequent to the oral dosing (administration) of formulated test compound and then by comparison of the ratio of the dose normalized total oral exposure (AUCpo) with the dose normalized total intra-venous exposure (AUCiv). Fraction absorbed (Fabs) is a secondary PK parameter that is often calculated from a knowledge of the clearance (CL) and bioavailability (F) of a test compound. […]
Calibration standard samples are prepared by addition of known amounts of test compound to blank diluted (1:1) blood samples. […] Following centrifugation, sample and calibration standard supernatants are analysed for test compound concentration by HPLC with MS/MS (triple quad mass spectrometry) detection. Quantification of test compound concentrations in the blood samples taken from the rats is achieved by reference to a standard curve constructed from the calibration standard samples. […]

CCc1nnc(C(C)C)n1C1CCN([C@H](C)C[C@@H](c2cc(F)cc(F)c2)C2CCN(S(C)(=O)=O)CC2)CC1 (single isomer, unassigned)
bioavailability: 28%

Cc1nnc(C(C)C)n1C1CCN(C(C)C[C@@H](c2cc(F)cc(F)c2)C2CCN(S(C)(=O)=O)CC2)CC1 (single isomer, unassigned) [Comparator Compound A]
bioavailability: 1%
